US20230203094A1, “Composition Comprising Thermosensitive Gel and Oligopeptide, and Use Thereof” (International Frontier Technology Laboratory, Inc., priority 2019, published 2023)

Test system: human keratinocyte cell (KAC Co., Ltd.: KER110)
Assay: Cell proliferation test (Cell Counting Kit-8) in TGP culturing substrate
Format: cell-based
Settings: 7 days culture, control = 100%, p < 0.01 (Dunnett)
Procedure: human keratinocyte cell (KAC Co., Ltd.: KER110)
the composition of the present disclosure comprising the polymer compound (TGP in Preparation Example 1) and oligopeptide of the present disclosure.
Frozen human keratinocyte cells (KAC Co., Ltd.: KER110) were dissolved in warm water at 37° C., suspended in EpiLife Medium (Thermo Fisher Scientific, Inc.: MEPI500CA) to which Human Keratinocyte Growth Supplement (HKGS) (Thermo Fisher Scientific, Inc.: S0015) was added, seeded in a 25 cm^2 flask, and cultured at 37° C. in an atmosphere containing 5% CO2.
The cultured cells were washed with DPBS (Thermo Fisher Scientific, Inc.: 14190144), and a trypsin solution (Thermo Fisher Scientific, Inc.: 12604013) was added to the cultured cells to recover cells and was centrifuged at 1,000 rpm for three minutes. After the centrifugation, supernatant was removed. A cell suspension obtained by adding a culture solution to a cell sediment was seeded in a 25 cm^2 flask and subcultured at 37° C. in an atmosphere containing 5% CO2.
The tripeptide in Preparation Example 3 was dissolved in a culture medium to prepare six samples having concentrations of 1 µM, 3 µM, 10 µM, 30 µM, 100 µM, and 1000 µM. A control includes only a culture medium.
The polymer compound (TGP in Preparation Example 1) of the present disclosure is added into a 48-well plate and freeze-dried. 120 µL of the six samples of the above concentrations and the control culture medium were added to the respective wells, and each mixture was dissolved with cooling at 4° C. overnight.
30 µL of a cell suspension recovered through the same procedure as the subculture operation was seeded in the polymer compound of the present disclosure in the 48-well plate and gelled at 37° C. for 30 minutes in an atmosphere containing 5% CO2. Then, 300 µL of the six samples of the above concentrations and control culture medium were layered and cultured at 37° C. in an atmosphere containing 5% CO2.
After culturing for 7 days, 250 µL of culture supernatant was removed, 60 µL of Cell Counting Kit-8 (Doujin Kagaku Co., Ltd.) was added and the mixture was reacted overnight at 37° C. in an atmosphere containing 5% CO2. 80 µL of the supernatant of an obtained reaction product was dispensed into a 96-well plate. This supernatant was measured with a microplate reader at a measurement wavelength of 450 nm to evaluate cell proliferation.
The cell proliferation rates of 1 µM, 3 µM, 10 µM, 30 µM, 100 µM, and 1000 µM samples were compared with that of a control, and the results are shown in Table 1 below.

CC[C@H](C)[C@H](NC(=O)[C@@H]1CCCN1)C(=O)NCC(=O)O (racemic) [Preparation Example 3, prolyl-isoleucyl-glycine]
Cell Proliferation Rates (1 µM tripeptide in TGP substrate): 114%
Cell Proliferation Rates (3 µM tripeptide in TGP substrate): 116%
Cell Proliferation Rates (10 µM tripeptide in TGP substrate): 118%
Cell Proliferation Rates (30 µM tripeptide in TGP substrate): 126%
Cell Proliferation Rates (100 µM tripeptide in TGP substrate): 126%
Cell Proliferation Rates (1000 µM tripeptide in TGP substrate): 128%
